Source: article PMC10451648 (Antibiotics, 2023)
≈ marks a conversion by molar mass, not a printed value. Entries after “also recorded” stand apart in the source; their conditions may differ. Square brackets hold non-standard residues; d marks the D form. Peptide text beside a SMILES is read from it. Aib = CC(C)(N)C(=O)O

Tests used:
Escherichia coli DH5α = type: cell-based; settings: broth microdilution, 10^4 CFUs per mL, 18 h at 35 °C; MIC = lowest concentration that completely inhibited bacterial growth; final conc. 0.39 to 100
Method: (§1) The antimicrobial activities of peptides 1–8 against Gram-positive Staphylococcus aureus, Gram-negative Escherichia coli DH5α, Pseudomonas aeruginosa, and multidrug-resistant P. aeruginosa (MDRP) were evaluated. The minimum inhibitory concentration (MIC) against these bacteria was measured as an indicator of antimicrobial activity, and the results are discussed in Table 2.
(§2) One type of Gram-positive bacteria, S. aureus NBRC 13276, and three Gram-negative bacteria, E. coli DH5α, P. aeruginosa NBRC 13275, and MDRP, were selected for the evaluation of the antimicrobial activity of the synthesized peptides. The selected bacterial strains were obtained from the Biological Resource Center, NITE (NBRC; Tokyo, Japan), and Escherichia coli DH5α cells were purchased from BioDynamics Laboratory, Inc. (Tokyo, Japan). The antimicrobial activities of the tested peptides 1–8 against each stain were examined by the standard broth microdilution method, as previously reported. Briefly, the bacteria were seeded and grown overnight at 37 °C on Agar media for other organisms i (Agar medium) and then collected with the media for other organisms ii (liquid medium), according to the 17th revision of Japanese Pharmacopoeia. Next, 10 μL of the peptide solution per well was added to each well of a sterile 96-well plate, and 90 μL per well of inoculation was mixed with 10^4 CFUs (colony forming units) per mL and added to each well, and the plate was incubated for 18 h at 35 °C.

P. aeruginosa NBRC 13275 = type: cell-based, Pseudomonas aeruginosa; settings: NBRC 13275, 18 h
Method: as §1, §2

[1] = system: multidrug-resistant P. aeruginosa (MDRP); type: cell-based, Pseudomonas aeruginosa; settings: multidrug-resistant (MDRP, 18 h)
Method: as §1, §2

S. aureus NBRC 13276 = type: cell-based, Staphylococcus aureus; settings: NBRC 13276, 18 h
Method: as §1, §2

human red blood cells = test: Hemolysis activity against red blood cells; settings: human RBCs in 172 mM Tris-HCl pH 7.6, 30 min at 37 °C, absorbance 535 nm; DMSO = 0%, M-Lycotoxin = 100%; final peptide conc. 100 to 0.39
Method: AMPs primarily target microbial membranes, leading to their antimicrobial activity through membrane lysis. However, it is important to consider their potential effects on human cell membranes, as this could raise concerns regarding cytotoxicity. […] Hemolytic activity was assessed by measuring the absorption at 535 nm, which indicates the leakage of red blood cell cytoplasmic contents and hemoglobin.
Human red blood cells (RBCs) were supplied by the Japanese Red Cross Society (Tokyo, Japan). The hemolytic assay of the synthesized peptides was performed as previously reported. Briefly, 5.0 mL of the total erythrocytes were washed three times with 172 mM Tris-HCl buffer (pH = 7.6, wash buffer:WB) and 1.0 mL of precipitated erythrocytes was diluted with 9.0 mL of WB. Then, 0.5 mL of the suspension was diluted in WB, and 50 µL of RBC solution was incubated with 50 µL of each peptide for 30 min at 37 °C (final peptide conc. from 100 to 0.39 μM). The suspensions were then centrifuged at 400 rpm for 5 min. The absorbance of the supernatant was measured at a wavelength of 535 nm. M-Lycotoxin [22], which is a typical hemolytic toxic peptide derived from Wolf spider, was used as a positive control, and the absorbance of the sample from DMSO and M-Lycotoxin treatment was defined as 0 and 100%, respectively.

Proteinase K = Proteinase K (Parengyodontium album, UniProt P06873); test: Digestion assay with proteinase K; type: in vitro ADME; settings: 0.002% (v/v) proteinase K, peptide 1 mM, 37 °C, 24 h; fragments by LC-MS
Method: The chemical stability of 17KKV-Aib (1) was investigated using a digestion assay with proteinase K, which is a widely used representative protease for assessing sensitivity to digestive enzymes. Proteinase K is widely recognized for its ability to cleave peptide bonds on the carboxylic sides of aliphatic, aromatic, or highly hydrophobic amino acids. Peptide 1 was treated with proteinase K for 24 h, and the remaining peptide fragments were evaluated using liquid phase chromatography–mass spectrometry (LC-MS) analysis. […] All the peptides were synthesized using Fmoc-assisted solid-phase methods by Liberty Blue. […]
Each peptide (1 mM) was treated with 0.002% (v/v) Proteinase K, and the mixture was incubated at 37 °C for 2–24 h. […] The residual peptides were assessed by analytical HPLC using an InertSustainSwift C18 column (3 µm, 25 cm × 4.6 mm, solvent A: water containing 0.1% TFA, solvent B: MeCN containing 0.1% TFA, flow rate: 1.0 mL/min, gradient: 10–90% gradient of solvent B over 30 min). The digestion assay was performed in two independent experiments, and the average values from them were calculated. […]
Figure 4 Chemical stability of the peptides 1–8 against proteinase K. Each peptide was incubated with 0.002% (v/v) proteinase K for the indicated times at 37 °C, and the residuals were evaluated by LC-MS. […]

Sequence of Proteinase K (P06873 106-384): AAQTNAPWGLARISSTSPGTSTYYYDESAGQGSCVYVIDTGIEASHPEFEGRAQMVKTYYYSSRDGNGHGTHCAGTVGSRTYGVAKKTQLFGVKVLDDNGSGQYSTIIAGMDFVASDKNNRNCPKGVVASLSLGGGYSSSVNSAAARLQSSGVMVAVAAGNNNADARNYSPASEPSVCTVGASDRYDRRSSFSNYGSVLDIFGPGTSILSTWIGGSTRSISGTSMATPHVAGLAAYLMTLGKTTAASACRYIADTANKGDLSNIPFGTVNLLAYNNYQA

## CC[C@H](C)[C@H](NC(=O)CN)C(=O)N[C@@H](CCCCN)C(=O)N[C@@H](CCCCN)C(=O)N[C@@H](Cc1ccccc1)C(=O)N[C@@H](CC(C)C)C(=O)N[C@@H](CCCCN)C(=O)N[C@@H](CO)C(=O)NC(C)(C)C(=O)N[C@@H](CCCCN)C(=O)N[C@@H](CCCCN)C(=O)N[C@@H](Cc1ccccc1)C(=O)N[C@H](C(=O)N[C@@H](CCCCN)C(=O)NC(C)(C)C(=O)N[C@@H](Cc1ccccc1)C(=O)N[C@@H](CCCCN)C(N)=O)C(C)C [Peptide 1] (H-GIKKFLKS[Aib]KKFVK[Aib]FK-NH2)
Escherichia coli DH5α
  MIC, E. Coli DH5α, Gram(−): 1.56 µM (≈ 3.11 µg/mL)
P. aeruginosa NBRC 13275
  MIC, P. aeruginosa, Gram(−): 3.125 µM (≈ 6.24 µg/mL)
[1]
  MIC, MDRP: 6.25 µM (≈ 12.5 µg/mL)
S. aureus NBRC 13276
  MIC, S. aureus, Gram(+): 12.5 µM (≈ 24.9 µg/mL)
Human red blood cells
  Hemolysis (concentration at which hemolytic activity is exhibited): 100 µM
Proteinase K
  Cleavage site upon proteinase K treatment: between 5th Phe and 6th Leu and 16th Phe and 17th Lys residues; also recorded: between the fifth Phe and sixth Leu residues
